How the values were obtained:
Test in all cases: Hoechst 33342 nuclear staining (Table 3)
Format in all cases: cell-based, human
Design in all cases: key: 0 relating to no activity; 1 relating to weak activity comprising less than 50% of the cells; score 2 relating to strong activity comprising more than 50% of the cells
[1] = tested on: H9
Procedure, shortened: (§1)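 Adherent cells (3-5×10^3, pre-spread 24 h) or suspension cells (8-10×10^3) treated with compounds at 10, 3, 1 and 0.3 µM for 24 or 48 h, then Hoechst 33342 stained for 30 min. Apoptotic nuclear morphology scored by fluorescence microscopy: 0 none, 1 weak (<50% cells), 2 strong (>50% cells).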

[2] = tested on: HBL 100
Procedure, shortened: as §1

[3] = tested on: HeLa
Procedure, shortened: as §1

[4] = tested on: SKMEL 1
Procedure, shortened: as §1

[5] = tested on: K562
Procedure, shortened: as §1

[6] = tested on: HT 1080
Procedure, shortened: as §1

[7] = tested on: Ramos
Procedure, shortened: as §1

[8] = tested on: PC-3
Procedure, shortened: as §1

## CC1(C)Cc2ccccc2-c2c(Br)c3nc4ccccc4nc3n21 [No. 2, 13-Bromo-6,6-dimethyl-5,6-dihydro-6a,7,12-triaza-dibenzo[a,h]fluorene]
[1]; H9, 24h, 0.3 µM
  Hoechst 33342 nuclear staining (fraction of apoptotic nuclei), score: 0
[1]; H9, 24h, 1 µM
  Hoechst 33342 nuclear staining (fraction of apoptotic nuclei), score: 0
[1]; H9, 24h, 3 µM
  Hoechst 33342 nuclear staining (fraction of apoptotic nuclei), score: 0
[1]; H9, 24h, 10 µM
  Hoechst 33342 nuclear staining (fraction of apoptotic nuclei), score: 0
[1]; H9, 48h, 0.3 µM
  Hoechst 33342 nuclear staining (fraction of apoptotic nuclei), score: 0
[1]; H9, 48h, 1 µM
  Hoechst 33342 nuclear staining (fraction of apoptotic nuclei), score: 0
[1]; H9, 48h, 3 µM
  Hoechst 33342 nuclear staining (fraction of apoptotic nuclei), score: 0
[1]; H9, 48h, 10 µM
  Hoechst 33342 nuclear staining (fraction of apoptotic nuclei), score: 0
[2]; HBL 100, 24h, 0.3 µM
  Hoechst 33342 nuclear staining (fraction of apoptotic nuclei), score: 0
[2]; HBL 100, 24h, 1 µM
  Hoechst 33342 nuclear staining (fraction of apoptotic nuclei), score: 0
[2]; HBL 100, 24h, 3 µM
  Hoechst 33342 nuclear staining (fraction of apoptotic nuclei), score: 0
[2]; HBL 100, 24h, 10 µM
  Hoechst 33342 nuclear staining (fraction of apoptotic nuclei), score: 0
[2]; HBL 100, 48h, 0.3 µM
  Hoechst 33342 nuclear staining (fraction of apoptotic nuclei), score: 0
[2]; HBL 100, 48h, 1 µM
  Hoechst 33342 nuclear staining (fraction of apoptotic nuclei), score: 0
[2]; HBL 100, 48h, 3 µM
  Hoechst 33342 nuclear staining (fraction of apoptotic nuclei), score: 0
[2]; HBL 100, 48h, 10 µM
  Hoechst 33342 nuclear staining (fraction of apoptotic nuclei), score: 2 (score 2 relating to strong activity comprising more than 50% of the cells)
[3]; 24h, conc 0.3 (µM)
  Hoechst 33342 nuclear staining: 0
[3]; 24h, conc 1 (µM)
  Hoechst 33342 nuclear staining: 0
[3]; 24h, conc 3 (µM)
  Hoechst 33342 nuclear staining: 0
[3]; 24h, conc 10 (µM)
  Hoechst 33342 nuclear staining: 0
[3]; 48h, conc 0.3 (µM)
  Hoechst 33342 nuclear staining: 0
[3]; 48h, conc 1 (µM)
  Hoechst 33342 nuclear staining: 1 (1 relating to weak activity comprising less than 50% of the cells)
[3]; 48h, conc 3 (µM)
  Hoechst 33342 nuclear staining: 2 (score 2 relating to strong activity comprising more than 50% of the cells)
[3]; 48h, conc 10 (µM)
  Hoechst 33342 nuclear staining: 2 (score 2 relating to strong activity comprising more than 50% of the cells)
[4]; SKMEL 1, 24h, 0.3 µM
  Hoechst 33342 nuclear staining (fraction of apoptotic nuclei), score: 0
[4]; SKMEL 1, 24h, 1 µM
  Hoechst 33342 nuclear staining (fraction of apoptotic nuclei), score: 0
[4]; SKMEL 1, 24h, 3 µM
  Hoechst 33342 nuclear staining (fraction of apoptotic nuclei), score: 0
[4]; SKMEL 1, 24h, 10 µM
  Hoechst 33342 nuclear staining (fraction of apoptotic nuclei), score: 0
[4]; SKMEL 1, 48h, 0.3 µM
  Hoechst 33342 nuclear staining (fraction of apoptotic nuclei), score: 0
[4]; SKMEL 1, 48h, 1 µM
  Hoechst 33342 nuclear staining (fraction of apoptotic nuclei), score: 0
[4]; SKMEL 1, 48h, 3 µM
  Hoechst 33342 nuclear staining (fraction of apoptotic nuclei), score: 0
[4]; SKMEL 1, 48h, 10 µM
  Hoechst 33342 nuclear staining (fraction of apoptotic nuclei), score: 0
[5]; K562, 24h, conc 0.3 (µM)
  Hoechst 33342 nuclear staining: 0
[5]; K562, 24h, conc 1 (µM)
  Hoechst 33342 nuclear staining: 0
[5]; K562, 24h, conc 3 (µM)
  Hoechst 33342 nuclear staining: 1 (1 relating to weak activity comprising less than 50% of the cells)
[5]; K562, 48h, conc 0.3 (µM)
  Hoechst 33342 nuclear staining: 0
[5]; K562, 48h, conc 1 (µM)
  Hoechst 33342 nuclear staining: 0
[5]; K562, 48h, conc 3 (µM)
  Hoechst 33342 nuclear staining: 2 (score 2 relating to strong activity comprising more than 50% of the cells)
[5]; K562, 48h, conc 10 (µM)
  Hoechst 33342 nuclear staining: 2 (score 2 relating to strong activity comprising more than 50% of the cells)
[6]; HT 1080, 24h, 0.3 µM
  Hoechst 33342 nuclear staining (fraction of apoptotic nuclei), score: 0
[6]; HT 1080, 24h, 1 µM
  Hoechst 33342 nuclear staining (fraction of apoptotic nuclei), score: 0
[6]; HT 1080, 24h, 3 µM
  Hoechst 33342 nuclear staining (fraction of apoptotic nuclei), score: 0
[6]; HT 1080, 24h, 10 µM
  Hoechst 33342 nuclear staining (fraction of apoptotic nuclei), score: 0
[6]; HT 1080, 48h, 0.3 µM
  Hoechst 33342 nuclear staining (fraction of apoptotic nuclei), score: 0
[6]; HT 1080, 48h, 1 µM
  Hoechst 33342 nuclear staining (fraction of apoptotic nuclei), score: 0
[6]; HT 1080, 48h, 3 µM
  Hoechst 33342 nuclear staining (fraction of apoptotic nuclei), score: 0
[6]; HT 1080, 48h, 10 µM
  Hoechst 33342 nuclear staining (fraction of apoptotic nuclei), score: 1 (1 relating to weak activity comprising less than 50% of the cells)
[7]; 24h, conc 0.3 (µM)
  Hoechst 33342 nuclear staining: 0
[7]; 24h, conc 1 (µM)
  Hoechst 33342 nuclear staining: 0
[7]; 24h, conc 3 (µM)
  Hoechst 33342 nuclear staining: 0
[7]; 24h, conc 10 (µM)
  Hoechst 33342 nuclear staining: 2 (score 2 relating to strong activity comprising more than 50% of the cells)
[7]; 48h, conc 0.3 (µM)
  Hoechst 33342 nuclear staining: 2 (score 2 relating to strong activity comprising more than 50% of the cells)
[7]; 48h, conc 1 (µM)
  Hoechst 33342 nuclear staining: 2 (score 2 relating to strong activity comprising more than 50% of the cells)
[7]; 48h, conc 3 (µM)
  Hoechst 33342 nuclear staining: 2 (score 2 relating to strong activity comprising more than 50% of the cells)
[7]; 48h, conc 10 (µM)
  Hoechst 33342 nuclear staining: 2 (score 2 relating to strong activity comprising more than 50% of the cells)
[8]; PC-3, 24h, 0.3 µM
  Hoechst 33342 nuclear staining (fraction of apoptotic nuclei), score: 0
[8]; PC-3, 24h, 1 µM
  Hoechst 33342 nuclear staining (fraction of apoptotic nuclei), score: 0
[8]; PC-3, 24h, 3 µM
  Hoechst 33342 nuclear staining (fraction of apoptotic nuclei), score: 0
[8]; PC-3, 24h, 10 µM
  Hoechst 33342 nuclear staining (fraction of apoptotic nuclei), score: 0
[8]; PC-3, 48h, 0.3 µM
  Hoechst 33342 nuclear staining (fraction of apoptotic nuclei), score: 0
[8]; PC-3, 48h, 1 µM
  Hoechst 33342 nuclear staining (fraction of apoptotic nuclei), score: 0
[8]; PC-3, 48h, 3 µM
  Hoechst 33342 nuclear staining (fraction of apoptotic nuclei), score: 0
[8]; PC-3, 48h, 10 µM
  Hoechst 33342 nuclear staining (fraction of apoptotic nuclei), score: 2 (score 2 relating to strong activity comprising more than 50% of the cells)

Source: EP1433789A1, “Pyrrolopyrazines and their use as selective apoptosis inducers” (Aponetics AG, priority 2002, dated 2004)
